Reference: ChEMBL document CHEMBL5625237 (Eur J Med Chem, 2023)

Columns and labels:
[1] = target: T1, Replicase polyprotein 1ab (Severe acute respiratory syndrome coronavirus 2, UniProt P0DTD1); experiment: (§1) Inhibition of recombinant full length his tagged C-terminal SARS-CoV 2 main protease (M1 to Q307 residues) expressed in Escherichia coli BL21 (DE3) cells using LGSAVLQ-Rh110-dP as peptide substrate preincubated for 1 hr followed by substrate addition and measured after 24 hrs by fluorescence based analysis
[2] = Cytotoxicity against human Calu-3 cells measured after 2 days by MTT assay; type: toxicity, cell-based; details: time 2 day
SARS-CoV-2 [3] = experiment: Antiviral activity against SARS CoV-2 (hCoV-19/Korea/KCDC06/2020) infected in human Calu-3 cells pre-infected with virus followed by compound addition and measured after 2 days post infection; type: functional, organism-based; details: Severe acute respiratory syndrome coronavirus 2, hCoV-19/Korea/KCDC06/2020, Calu-3, 48 h
[4] = Selectivity index, ratio of CC50 for human Calu-3 cells to EC50 for SARS CoV-2 (hCoV-19/Korea/KCDC06/2020) infected in human Calu-3 cells; type: toxicity, cell-based; details: read-out: Ratio CC50/EC50
[5] = target: Replicase polyprotein 1ab (Severe acute respiratory syndrome coronavirus 2) (UniProt P0DTD1); experiment: as §1, with “peptide substrate at 10 uM preincubated for” for “peptide substrate preincubated for”, “based analysis relative to control” for “based analysis”; details: time 25.0 hrs
SARS-CoV-2 [6] = experiment: microbe, parasite or virus in culture; details: Severe acute respiratory syndrome coronavirus 2, USA/NYU-VC-003/2020, A549-ACE2
[7] = target: T1, Replicase polyprotein 1ab; experiment: Inhibition of recombinant full length SARS-CoV-2 main protease expressed in Escherichia coli preincubated for 10 mins followed by substrate addition and measured every 30 secs for 10 mins
SARS-CoV-2 [8] = experiment: Antiviral activity against SARS-CoV-2 (nCoV-2019BetaCoV/Wuhan/WIV04/2019) infected in african green monkey Vero E6 cells preincubated with compound for 1 hr followed by viral infection for 2 hrs and measured after 24 hrs post infection by real time PCR analysis; type: functional, organism-based; details: Severe acute respiratory syndrome coronavirus 2, nCoV-2019BetaCoV/Wuhan/WIV04/2019, Vero C1008

Structure (SMILES): O=C(NCCCCCCc1ccccc1)n1cc(F)c(=O)[nH]c1=O
- IC50 [1]: 3.8 µM

Structure (SMILES): CC(C)Cn1c(C(=O)NCCCNC(=O)n2ccc(=O)[nH]c2=O)cc2cc(F)ccc21
- CC50 at 48 h [2]: > 100 µM
- IC50 [1]: 0.57 µM

Structure (SMILES): CCCCCCNC(=O)n1cc(F)c(=O)[nH]c1=O [CARMOFUR]
- CC50 at 48 h [2]: > 100 µM
- EC50 (SARS-CoV-2 [3]): > 100 µM

Structure (SMILES): CCC(CC)COC(=O)[C@H](C)N[P@](=O)(OC[C@H]1O[C@@](C#N)(c2ccc3c(N)ncnn23)[C@H](O)[C@@H]1O)Oc1ccccc1
- CC50 at 48 h [2]: > 100 µM
- selectivity ratio [4]: > 172
- EC50 (SARS-CoV-2 [3]): 0.58 µM

Structure (SMILES): CCCCCCNC(=O)n1cc(C(F)(F)F)c(=O)[nH]c1=O
- IC50 [1]: 7.4 µM

Structure (SMILES): O=C(NCCCc1ccccc1)n1cc(F)c(=O)[nH]c1=O
- inhibition [5]: 27%

Structure (SMILES): O=C(NCCC1CCCC1)n1cc(F)c(=O)[nH]c1=O
- CC50 at 48 h [2]: > 100 µM
- selectivity ratio [4]: > 2
- IC50 [1]: 4.6 µM
- EC50 (SARS-CoV-2 [3]): 49 µM

Structure (SMILES): CCCCCCNC(=O)n1cc(Cl)c(=O)[nH]c1=O
- IC50 [1]: 5.5 µM

Structure (SMILES): COc1cccc2[nH]c(C(=O)N[C@@H](CC(C)C)C(=O)N[C@@H](C[C@@H]3CCNC3=O)C(=O)CO)cc12 [PF-00835231]
- EC50 (SARS-CoV-2 [6]): 0.221 µM

Structure (SMILES): CC(C)C[C@H](CNC(=O)c1cc2ccccc2[nH]1)CNC(=O)n1cc(F)c(=O)[nH]c1=O
- IC50 [1]: 4.4 µM

Structure (SMILES): O=C(NCCCNC(=O)n1cc(F)c(=O)[nH]c1=O)c1cc2ccccc2[nH]1
- IC50 [1]: 2.6 µM

Structure (SMILES): CC(C)(C)CC(=O)N1CCC(CCCNC(=O)n2cc(F)c(=O)[nH]c2=O)CC1
- CC50 at 48 h [2]: 99 µM
- selectivity ratio [4]: 8.3
- IC50 [1]: 1.7 µM
- EC50 (SARS-CoV-2 [3]): 12 µM
- IC50 [7]: 0.053 µM
- EC50 (SARS-CoV-2 [8]): 0.53 µM

Structure (SMILES): O=C(NCCCNC(=O)n1cc(F)c(=O)[nH]c1=O)c1ccc2cc[nH]c2c1
- IC50 [1]: 2.4 µM

Structure (SMILES): CC(C)Cn1c(C(=O)NCCCNC(=O)n2cc(F)c(=O)[nH]c2=O)cc2cc(OC(F)(F)F)ccc21
- IC50 [1]: 2.5 µM

Structure (SMILES): Cc1cn(C(=O)NCCCNC(=O)c2cc3cc(Cl)ccc3n2CC(C)C)c(=O)[nH]c1=O
- CC50 at 48 h [2]: > 100 µM
- IC50 [1]: 1.3 µM

Structure (SMILES): O=C(NCCCC1CCNCC1)n1cc(F)c(=O)[nH]c1=O
- inhibition [5]: 19%

Structure (SMILES): CC(C)(C)OC(=O)N1CCC(CCCNC(=O)n2cc(F)c(=O)[nH]c2=O)CC1
- IC50 [1]: 3.4 µM

Structure (SMILES): O=C(NCCCCc1ccccc1)n1cc(F)c(=O)[nH]c1=O
- IC50 [1]: 3.9 µM

Structure (SMILES): Cn1c(C(=O)NCCCNC(=O)n2cc(F)c(=O)[nH]c2=O)cc2ccccc21
- IC50 [1]: 1.5 µM

Structure (SMILES): O=C(NCCCNC(=O)n1cc(F)c(=O)[nH]c1=O)c1cc2ccccc2n1Cc1ccccc1
- IC50 [1]: 5.1 µM

Structure (SMILES): CCn1c(C(=O)NCCCNC(=O)n2cc(F)c(=O)[nH]c2=O)cc2ccccc21
- IC50 [1]: 1.9 µM

Structure (SMILES): Cc1cn(C(=O)NCCCNC(=O)c2cc3cc(F)ccc3n2CC(C)C)c(=O)[nH]c1=O
- CC50 at 48 h [2]: > 100 µM
- IC50 [1]: 0.7 µM

Structure (SMILES): CCCCCCNC(=O)n1cc(C)c(=O)[nH]c1=O
- IC50 [1]: 7.6 µM

Structure (SMILES): CC(C)Cn1c(C(=O)NCCCNC(=O)n2cc(F)c(=O)[nH]c2=O)cc2cc(Cl)ccc21
- CC50 at 48 h [2]: > 100 µM
- selectivity ratio [4]: > 5.5
- IC50 [1]: 0.35 µM
- EC50 (SARS-CoV-2 [3]): 18 µM

Structure (SMILES): Cn1ccc2ccc(C(=O)NCCCNC(=O)n3cc(F)c(=O)[nH]c3=O)cc21
- IC50 [1]: 3.8 µM

Structure (SMILES): CC(C)Cn1c(C(=O)NCCCNC(=O)n2cc(F)c(=O)[nH]c2=O)cc2ccccc21
- IC50 [1]: 0.97 µM

Structure (SMILES): CC(C)Cn1c(C(=O)NCCCNC(=O)n2ccc(=O)[nH]c2=O)cc2cc(Cl)ccc21
- CC50 at 48 h [2]: > 100 µM
- IC50 [1]: 1.6 µM

Structure (SMILES): O=C(NCCC1CCCCC1)n1cc(F)c(=O)[nH]c1=O
- IC50 [1]: 4.9 µM

Structure (SMILES): O=C(CC1CCCCC1)N1CCC(CCCNC(=O)n2cc(F)c(=O)[nH]c2=O)CC1
- IC50 [1]: 4.5 µM
- IC50 [7]: 0.04 µM
- EC50 (SARS-CoV-2 [8]): 0.72 µM

Structure (SMILES): CCCCCCNC(=O)n1ccc(=O)[nH]c1=O
- IC50 [1]: 9.8 µM

Structure (SMILES): CCCCCCNC(=O)n1cc(Br)c(=O)[nH]c1=O
- IC50 [1]: 7.4 µM

Structure (SMILES): Cc1ccc2c(c1)cc(C(=O)NCCCNC(=O)n1cc(F)c(=O)[nH]c1=O)n2CC(C)C
- IC50 [1]: 1.2 µM

Structure (SMILES): O=C(NCCCCC1CCCCC1)n1cc(F)c(=O)[nH]c1=O
- inhibition [5]: 31%

Structure (SMILES): O=C(Cc1ccccc1)N1CCC(CCCNC(=O)n2cc(F)c(=O)[nH]c2=O)CC1
- IC50 [1]: 3.9 µM

Structure (SMILES): CC(C)Cn1c(C(=O)NCCCNC(=O)n2cc(F)c(=O)[nH]c2=O)cc2cc(C(F)(F)F)ccc21
- IC50 [1]: 0.79 µM

Structure (SMILES): CC(C)Cn1c(C(=O)NCCCNC(=O)n2cc(F)c(=O)[nH]c2=O)cc2cc(F)ccc21
- CC50 at 48 h [2]: 98 µM
- selectivity ratio [4]: 3.3
- IC50 [1]: 0.37 µM
- EC50 (SARS-CoV-2 [3]): 29 µM

Structure (SMILES): O=C(NCCCC1CCCCC1)n1cc(F)c(=O)[nH]c1=O
- IC50 [1]: 3.3 µM

Structure (SMILES): CCCCCCNC(=O)n1cc(CC)c(=O)[nH]c1=O
- IC50 [1]: 6.2 µM

Structure (SMILES): COc1ccc2c(c1)cc(C(=O)NCCCNC(=O)n1cc(F)c(=O)[nH]c1=O)n2CC(C)C
- IC50 [1]: 1.4 µM

Structure (SMILES): O=C(c1ccc2cc[nH]c2c1)N1CCC(CCCNC(=O)n2cc(F)c(=O)[nH]c2=O)CC1
- IC50 [1]: 3.1 µM
